According to ChEMBL document CHEMBL3745716, “Synthesis, pharmacological assessment, molecular modeling and in silico studies of fused tricyclic coumarin derivatives as a new family of multifunctional anti-Alzheimer agents” (Eur J Med Chem, 2016):
pIC50, pKi: −log10 of the molar value. Calls of active or inactive are those of the source. The calls are words filed in the database; no cut-off is given here.

Tests used:
SK-N-SH [1] = assay: Neuroprotective activity against H2O2-induced cell death in human SK-N-SH cells assessed as cell viability preincubated for 3 hrs followed by H202 challenge after 24 hrs by MTT assay; format: functional, cell-based
[2] = Potency index, ratio of trolox IC50 to compound IC50 for ABTS radical scavenging activity
SK-N-SH [3] = assay: Neurotoxicity against human SK-N-SH cells assessed as cell viability at 120 uM after 24 hrs by MTT assay; format: toxicity, cell-based
SK-N-SH [4] = assay: Neurotoxicity against human SK-N-SH cells assessed as cell viability at 80 uM after 24 hrs by MTT assay; format: toxicity, cell-based
Mus musculus = assay: In vivo inhibition of AChE in ip dosed BALB/c ByJ mouse brain assessed as hydrolysis of acetylthiocholine iodide after 48 hrs by Ellman's method; format: functional, organism-based
SK-N-SH [5] = assay: Neurotoxicity against human SK-N-SH cells assessed as cell viability at 160 uM after 24 hrs by MTT assay; format: toxicity, cell-based
Acetylcholinesterase [6] = target: T1, Acetylcholinesterase (Electrophorus electricus, UniProt O42275)
Description: Inhibition of electric eel AChE using acetylthiocholine iodide as substrate preincubated for 5 mins followed by substrate addition measured after 5 mins by Ellman's method

Cholinesterase = Cholinesterase (Equus caballus, UniProt P81908)
Description: Inhibition of horse serum butyrylcholinesterase using butyrylthiocholine iodide as substrate preincubated for 5 mins followed by substrate addition measured after 5 mins by Ellman's method

Acetylcholinesterase [7] = target: T1, Acetylcholinesterase; assay: Mixed-type inhibition of electric eel AChE using acetylthiocholine iodide as substrate assessed as enzyme-substrate complex preincubated for 5 mins followed by substrate addition measured over 6 mins by Lineweaver Burk plot analysis
[8] = target: Acetylcholinesterase (Electrophorus electricus) (UniProt O42275); assay: Potency index, ratio of galantamine IC50 to compound IC50 for electric eel AChE
SK-N-SH [9] = assay: Neurotoxicity against human SK-N-SH cells assessed as cell viability at 40 uM after 24 hrs by MTT assay; format: toxicity, cell-based
Acetylcholinesterase [10] = target: T1, Acetylcholinesterase; assay: Mixed-type inhibition of electric eel AChE using acetylthiocholine iodide as substrate assessed as free enzyme preincubated for 5 mins followed by substrate addition measured over 6 mins by Lineweaver Burk plot analysis
SK-N-SH [11] = assay: Neurotoxicity against human SK-N-SH cells assessed as cell viability at 200 uM after 24 hrs by MTT assay; format: toxicity, cell-based

Chain of Cholinesterase (P81908 whole entry): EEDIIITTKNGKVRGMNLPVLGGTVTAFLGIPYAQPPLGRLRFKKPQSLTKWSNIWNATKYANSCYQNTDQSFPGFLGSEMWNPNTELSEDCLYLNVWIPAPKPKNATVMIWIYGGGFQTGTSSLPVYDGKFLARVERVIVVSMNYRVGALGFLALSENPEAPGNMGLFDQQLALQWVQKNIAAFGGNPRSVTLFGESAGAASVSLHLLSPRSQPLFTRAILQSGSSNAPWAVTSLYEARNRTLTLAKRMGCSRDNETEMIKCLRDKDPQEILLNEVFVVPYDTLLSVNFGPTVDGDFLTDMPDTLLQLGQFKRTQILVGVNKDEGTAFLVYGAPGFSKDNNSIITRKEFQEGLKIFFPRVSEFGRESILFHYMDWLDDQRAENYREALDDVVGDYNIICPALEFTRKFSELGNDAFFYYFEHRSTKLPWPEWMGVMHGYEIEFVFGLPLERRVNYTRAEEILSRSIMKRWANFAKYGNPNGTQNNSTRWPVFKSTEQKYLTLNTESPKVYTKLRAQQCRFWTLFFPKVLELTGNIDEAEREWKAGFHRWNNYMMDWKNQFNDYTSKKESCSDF
Chain of Acetylcholinesterase (Electrophorus electricus) (O42275 24-633 limits assumed): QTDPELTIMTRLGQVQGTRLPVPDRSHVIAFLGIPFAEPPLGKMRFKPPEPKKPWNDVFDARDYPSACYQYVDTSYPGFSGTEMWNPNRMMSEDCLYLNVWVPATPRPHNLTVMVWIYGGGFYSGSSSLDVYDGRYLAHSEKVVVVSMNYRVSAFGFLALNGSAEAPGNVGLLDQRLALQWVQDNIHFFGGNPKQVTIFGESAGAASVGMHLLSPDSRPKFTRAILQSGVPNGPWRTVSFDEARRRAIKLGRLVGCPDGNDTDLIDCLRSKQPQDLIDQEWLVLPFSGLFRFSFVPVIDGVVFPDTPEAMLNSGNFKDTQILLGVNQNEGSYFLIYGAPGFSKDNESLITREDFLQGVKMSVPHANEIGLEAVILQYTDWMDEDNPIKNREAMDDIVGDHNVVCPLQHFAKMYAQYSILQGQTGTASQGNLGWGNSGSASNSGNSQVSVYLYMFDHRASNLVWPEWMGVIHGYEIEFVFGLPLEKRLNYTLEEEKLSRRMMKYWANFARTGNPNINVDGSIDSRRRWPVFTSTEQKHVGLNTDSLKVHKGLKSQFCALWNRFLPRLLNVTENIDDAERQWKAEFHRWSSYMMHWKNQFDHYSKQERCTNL
T1 sequence (O42275 whole entry): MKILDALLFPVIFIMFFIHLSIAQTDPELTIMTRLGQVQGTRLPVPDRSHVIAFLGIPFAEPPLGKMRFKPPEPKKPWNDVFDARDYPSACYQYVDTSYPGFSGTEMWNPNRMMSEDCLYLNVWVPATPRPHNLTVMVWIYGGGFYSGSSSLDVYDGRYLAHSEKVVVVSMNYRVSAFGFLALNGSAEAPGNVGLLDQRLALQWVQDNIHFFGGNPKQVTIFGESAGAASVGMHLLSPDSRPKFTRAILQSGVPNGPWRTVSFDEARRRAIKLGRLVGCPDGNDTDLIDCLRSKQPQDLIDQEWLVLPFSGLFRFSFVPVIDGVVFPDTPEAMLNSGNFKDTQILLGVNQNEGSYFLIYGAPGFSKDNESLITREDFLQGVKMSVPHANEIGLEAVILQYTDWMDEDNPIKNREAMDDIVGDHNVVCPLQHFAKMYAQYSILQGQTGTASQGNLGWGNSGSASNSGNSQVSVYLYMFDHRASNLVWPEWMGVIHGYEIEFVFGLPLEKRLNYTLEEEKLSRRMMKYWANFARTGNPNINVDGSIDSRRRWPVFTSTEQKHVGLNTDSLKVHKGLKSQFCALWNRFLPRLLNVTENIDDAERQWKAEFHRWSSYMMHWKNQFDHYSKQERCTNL

Row | Structure (SMILES) | Activity (SK-N-SH [1]) | Ratio IC50 [2] | Activity (SK-N-SH [3]) | Activity (SK-N-SH [4]) | inhibition (Mus musculus) | Activity (SK-N-SH [5]) | pIC50 (Acetylcholinesterase [6]) | pIC50 (Cholinesterase) | pKi (Acetylcholinesterase [7]) | Ratio IC50 [8] | pIC50 | Activity (SK-N-SH [9]) | pKi (Acetylcholinesterase [10]) | Activity (SK-N-SH [11])
1 | Cc1cc(=O)oc2c1ccc1oc(=N)c(C(=O)NCc3cccc(Br)c3)cc12 | Dose-dependent effect | 1.7 | Toxic | Toxic | Active | Toxic | 8.52 | < 4.00 | 7.71 | 2 | 5.10 | Toxic | 7.99 | Toxic
2 | Cc1cc(=O)oc2c1ccc1oc(=N)c(C(=O)Nc3ccccc3[N+](=O)[O-])cc12 | – | – | – | – | – | – | 6.65 | < 4.00 | – | 2 | < 4.30 | – | – | –
3 | Cc1cc(=O)oc2c1ccc1oc(=N)c(C(=O)NC(c3ccccc3)c3ccccc3)cc12 | – | – | – | – | – | – | 7.05 | – | – | 2 | < 4.30 | – | – | –
4 | Cc1cc(=O)oc2c1ccc1oc(=N)c(C(=O)N3CCOCC3)cc12 | – | 1.7 | – | – | – | – | 6.94 | – | – | 2 | 4.95 | – | – | –
5 | Cc1cc(=O)oc2c1ccc1oc(=N)c(C(=O)NC3CCCCC3)cc12 | – | – | – | – | – | – | 7.57 | 4.38 | – | 2 | < 4.30 | – | – | –
6 | Cc1cc(=O)oc2c1ccc1oc(=N)c(C(=O)N3CCCC3)cc12 | – | – | – | – | – | – | 6.01 | 4.14 | – | 2 | < 4.30 | – | – | –
7 | Cc1cc(=O)oc2c1ccc1oc(=N)c(C(=O)NC3CC3)cc12 | – | – | – | – | – | – | 6.04 | 4.41 | – | – | < 4.30 | – | – | –
8 | COc1ccccc1OCCNC(=O)c1cc2c(ccc3c(C)cc(=O)oc32)oc1=N | – | – | – | – | – | – | 5.59 | 4.61 | – | – | 4.89 | – | – | –
9 | CNC(=O)c1cc2c(ccc3c(C)cc(=O)oc32)oc1=N | – | – | – | – | – | – | 5.85 | < 4.00 | – | – | 4.47 | – | – | –
10 | CCNC(=O)c1cc2c(ccc3c(C)cc(=O)oc32)oc1=N | – | – | – | – | – | – | 6.53 | 4.95 | – | 2 | < 4.30 | – | – | –
11 | COc1ccc(C(C)NC(=O)c2cc3c(ccc4c(C)cc(=O)oc43)oc2=N)cc1 (stereo unspecified) | – | 1.7 | – | – | – | – | 5.72 | – | – | – | 5.04 | – | – | –
12 | Cc1cc(=O)oc2c1ccc1oc(=N)c(C(=O)NCc3ccccc3)cc12 | – | – | – | – | – | – | 5.67 | < 4.00 | – | 2 | < 4.30 | – | – | –
13 | Cc1cc(=O)oc2c1ccc1oc(=N)c(C(=O)NC(C)c3ccccc3)cc12 (stereo unspecified) | – | 1.7 | – | – | – | – | 6.61 | 4.45 | – | 2 | 4.85 | – | – | –
14 | CCCCCCCCCCCCNC(=O)c1cc2c(ccc3c(C)cc(=O)oc32)oc1=N | – | – | – | – | – | – | 7.66 | < 4.00 | – | 2 | < 4.30 | – | – | –
15 | Cc1c(C)c2c(c(C)c1O)CCC(C)(C(=O)O)O2 (stereo unspecified) [TROLOX] | – | – | – | – | – | – | – | – | – | – | 4.56 | – | – | –
16 | Cc1cc(=O)oc2c1ccc1oc(=N)c(C(=O)NCc3ccccc3Br)cc12 | Dose-dependent effect | 1.7 | Non-toxic | Non-toxic | – | Non-toxic | 7.80 | < 4.00 | – | 2 | 4.92 | Non-toxic | – | Non-toxic
17 | COc1ccc(CNC(=O)c2cc3c(ccc4c(C)cc(=O)oc43)oc2=N)c(OC)c1 | – | – | – | – | – | – | 6.45 | < 4.00 | – | 2 | < 4.30 | – | – | –
18 | Cc1cc(=O)oc2c1ccc1oc(=N)c(C(=O)NCc3ccc(C(C)(C)C)cc3)cc12 | Dose-dependent effect | 1.7 | Toxic | Toxic | – | Toxic | 8.00 | 4.24 | – | 2 | 4.87 | Toxic | – | Toxic
19 | Cc1cc(=O)oc2c1ccc1oc(=N)c(C(=O)NCc3ccccc3Cl)cc12 | Dose-dependent effect | 1.7 | Non-toxic | Non-toxic | – | Non-toxic | 7.92 | < 4.00 | – | 2 | 4.80 | Non-toxic | – | Non-toxic
20 | Cc1cc(=O)oc2c1ccc1oc(=N)c(C(=O)NCc3cccc(Cl)c3)cc12 | Dose-dependent effect | 1.7 | Non-toxic | Non-toxic | – | Non-toxic | 7.72 | < 4.00 | – | 2 | 4.99 | Non-toxic | – | Non-toxic
